Earlier results on three substances are cited in patent US12504433B2, “Methods, systems and kits for in-pen assays” (BRUKER CELLULAR ANALYSIS, INC., priority 2020, dated 2025).

One data set concerns Fc of hIgG. The following applies: read-out: Affinity for IgG.

Turning to “5′-rGp-rGp-rAp-rGp-rGp-fUp-fCp-fCp-rGp-rAp-rAp-rAp-rGp-rGp-rAp-fCp-fUp-fCp-fCp-3′ [CPD 5]”, the Kd in the data set with Fc of hIgG was 75 nM.

With “CPD 1: Protein A-AF594, Pierce Recombinant Protein A (ThermoFisher Cat. # 77674)”, the “Affinity for IgG” value at IgG (stated in words) is reported as “nanomolar”.

In the case of “DCAWHLGELVWCT [CPD 4, Asp Cys Ala Trp His Leu Gly Glu Leu Val Trp Cys Thr]”, the Kd at IgG (Fc, read-out: Affinity for IgG) is 100 nM.
